From patent US20250295609A1, “COMPOUND HAVING ANTI-ANDROGEN RECEPTOR ACTIVITY, AND USE THEREOF” (NANJING MINOVA PHARMACEUTICAL CO., LTD., priority 2022, published 2025)

Tested on: alopecia mouse model
Assay: Hair growth promotion test in mice with alopecia (testosterone propionate model)
Assay type: in vivo, C57BL/6 mice
Conditions: for growth of hairs and hair follicles compared to positive control drug group (in words): daily dose 1.5 mg, FIG. 3; for Number of hair follicles (X ± SD): day 18, per field (×100), HE staining, topical once daily for 16 days; for Hair length (X ± SD): day 18, topical once daily for 16 days, testosterone propionate alopecia mice
Description: The compounds of the present disclosure were tested for their hair growth-promoting effects on an alopecia mouse model.
C57BL/6 mice (purchased from SPF (Beijing) Biotechnology Co., Ltd., production license No.: SCXK (Beijing) 2019-0010), test compounds (prepared by the method of the present disclosure), rosin (Shanghai YuanYe Bio-Technology Co., Ltd., lot No. Y18M10C83144), liquid paraffin (Shanghai YuanYe Bio-Technology Co., Ltd., lot No.: Z22S11Y125555), chloral hydrate (Sinopharm Chemical Reagent Co., Ltd., lot No.: 20190823, a 2% chloral hydrate solution was prepared by using a 0.9% sodium chloride solution before use), testosterone propionate (Aladdin Reagent (Shanghai) Co., Ltd., lot No.: T101368, a 0.5% testosterone propionate solution was prepared by using an a soybean oil for injection before use), soybean oil for injection (Liaoning Shinsun Pharmaceutical Co., Ltd., lot No.: NMPA Approval No. H21024303), paraformaldehyde (Xilong Scientific Co., Ltd., lot No.: 1705022), a 0.9% sodium chloride solution (Jiangsu Huai'an Shuanghe Pharmaceutical Co., Ltd., lot No.: 210322-3C), an electronic balance (Beijing Sartorius Scientific Instruments Co., Ltd., model: BS224 S; GZX-9140MBE), and a digital display electric heating constant temperature air blast drying oven (Shanghai Boxun Medical Biological Instrument Corp.).
8-week-old male C57BL/6 mice were selected and injected with 2% chloral hydrate (400 mg/kg) for anesthesia. Equal amounts of rosin and paraffin were weighed out, heated, and mixed well. The mixture was applied on the front back of the mice in an area of about 2 cm×2.5 cm. After the mixture was cooled to be hard, the solidified hair was torn off by tweezers gently.
Qualified C57BL/6 mice (3 mice per group) were randomly assigned to a blank group, a model group, a positive control drug group (7.5% clascoterone group), and test groups (including 0.3% compound 8 group and 0.3% compound 7 group). Mice in the blank group were coated with 0.1 mL of normal saline in the depilated area every morning (1 time a day for 17 consecutive days); mice in the model group were coated with 0.1 mL of 0.5% testosterone propionate solution in the depilated area every morning (1 time a day, starting on the first day, for 17 consecutive days), and with 0.5 mL of the control solvent in the depilated area every afternoon (1 time a day, starting on the second day, for 16 consecutive days); mice in the positive control drug group were coated with 0.1 mL of 0.5% testosterone propionate solution in the depilated area every morning (1 time a day, starting on the first day, for 17 consecutive days), and with 0.5 mL of 7.5% clascoterone solution in the depilated area every afternoon (1 time a day, starting on the second day, for 16 consecutive days); and mice in the test groups were coated with 0.1 mL of 0.5% testosterone propionate solution in the depilated area every morning (1 time a day, starting on the first day, for 17 consecutive days), and with 0.5 mL of 0.3% test compound solution in the depilated area every afternoon (1 time a day, starting on the second day, for 16 consecutive days). The formula of the test compound solution was 0.3% test compound, 40% DMSO, 30% ethanol, and the balance of water; the formula of the control solvent was 40% DMSO, 30% ethanol, and the balance of water; the formula of the positive control drug group was 7.5% clascoterone, 40% DMSO, 30% ethanol, and the balance of water. The hair regrowth in the depilated area of the mice in each group was observed and photographed 16 days after the start of topical administration of the test compound solution.
On day 18 of the test, 5 new hairs were pulled out from the back depilated area of each mouse in each group, the lengths of the hairs were measured using a vernier caliper, and the lengths of the hairs of the mice in each group were counted. The skin of the depilated area of the mice in each group was cut out, and hematoxylin-eosin staining (HE staining) was performed. […]

COc1ccc(/C=C/C(=O)C2(C(=O)/C=C/c3ccc(OC)c(OC)c3)CCC(=O)CC2)cc1OC [Compound 7]
growth of hairs and hair follicles compared to positive control drug group (in words): better than that of the positive control drug group
Number of hair follicles (X ± SD): 95.600 ± 26.091
Hair length (X ± SD): 3.850 ± 0.009 mm

COc1ccc(/C=C/C(=O)C2(C(=O)/C=C/c3ccc(OC)c(OC)c3)CCC(F)(F)CC2)cc1OC [Compound 8]
growth of hairs and hair follicles compared to positive control drug group (in words): better than that of the positive control drug group
Number of hair follicles (X ± SD): 116.733 ± 35.809
Hair length (X ± SD): 4.493 ± 0.024 mm
